We go through four compounds from US5175338A, “Isocarbacyclin derivatives and their pharmaceutically acceptable salts thereof” (Teijin Limited, priority 1986, dated 1992).

≈ marks a conversion by molar mass, not a printed value.

One test concerns Platelet aggregation. Kind of test: Platelet aggregation inhibiting activity in vitro (ADP-induced, rabbit platelet-rich plasma). The class given is cell-based, rabbits (Japanese native white male). The conditions noted are these: Oryctolagus cuniculus, rabbit PRP, ADP 10 μM, 37° C., minimum concentration at which inhibition exceeds 50%, read-out: Platelet aggregation inhibitory activity (IC50). As to the method: The platelet aggregation inhibiting activity in vitro of each of the text compounds was assayed by using rabbits. Japanese native white male rabbits having a body weight of 2.5 to 3.5 kg were used. Blood was taken from the ear vein of the animals maintaining the 3.8% trisodium citrate/blood ratio at 1:9. The blood was centrifuged at 1,000 rpm for 10 minutes, and the upper layer was separated as PRP (platelet-rich plasma). The lower layer was further centrifuged at 2,800 rpm for 10 minutes. It separated into two layers. The upper layer was separated as PPP (platelet-poor plasma). The number of platelets was adjusted to 6×10^5 /microliter by dilution with PPP. Each of the test compounds was added in an amount of 25 microliters to 250 microliters of PRP after adjustment, and the mixture was subjected to preincubation at 37° C. for 2 minutes. Then ADP was added so that its final concentration was 10 μM, and variations in transmittance were recorded by using an agrigometer. The test compound was used after it was dissolved in ethanol to a concentration of 10 mg/ml and then serially diluted with phosphate buffer (pH 7.4). The percent inhibition of aggregation was calculated in accordance with the following equation. [formula] where
To is the transmittance of the system to which the test compound was not added, and
T is the transmittance of the system to which the test compound was added.
The minimum concentration of the compound at which the percent inhibition exceeds 50% is shown as IC50.

The subject of test [1] is liver cell necrosis induced by carbon tetrachloride. Nature of the test: Effect (in vivo) on liver cell necrosis induced by carbon tetrachloride; inhibition of plasma GPT activity increase. The conditions noted are these: five administrations, 24 hours after CCl4 s.c., rat. Set-up: species or system SD-strain male rats. How it is done:
Effect (in vivo) on liver cell necrosis induced by carbon tetrachloride
Carbon tetrachloride and each of the test compounds were administered to SD-strain male rats (6 weeks old, body weight 170 to 200 g) by the following procedure. Blood was taken from the animals, and glutamic acid-pyruvic acid transferase (GPT) activity as an index of liver injury was measured by the ultraviolet absorbance measuring method (rate-optimum standard method), and the effect of the test compound was evaluated.
The rats were used in groups each consisting of 8 to 36 rats. The test compound was used as an aqueous 0.5% Tween 80-2.5% ethanol solution. […] The test compound was administered five times in total, i.e. 30 minutes before administration of carbon tetrachloride and 1, 2, 8 and 18 hours after administration of carbon tetrachloride. The carbon tetrachloride was subcutaneously administered as a 50% olive oil solution at a rate of […] of body weight (6670 mg/kg body weight as carbon tetrachloride). Before administration of carbon tetrachloride, the animals had been caused to abstain from food for about 18 hours.
Twenty-four hours after the administration of carbon tetrachloride, the rats were anesthetized with ether. Blood was drawn from the abdominal artery of the animals, and left to stand at room temperature for 1 hour and then centrifuged at 3,000 rpm for 15 minutes. The supernatant was used as a serum sample, and the GPT activity was measured.
The percent inhibition of the test compound on the increase of the plasma GPT activity increase by CCl4 was calculated in accordance with the following equation. [formula]

As to `CCCCC[C@H](O)/C=C/[C@@H]1[C@H]2C/C(=C/CCCC(=O)O)O[C@H]2C[C@H]1O` [Prostaglandin I2, reference compound], in the test on Platelet aggregation, the concentration for half-maximal inhibition (IC50) (commonly the concentration needed to halve the response being measured) was determined as 0.004 µg/mL (≈ 0.0113 µM).

As for `CCCCC(C)(O)C/C=C/[C@@H]1[C@H]2CC(CCCCC(=O)O)=C[C@H]2C[C@H]1O` (stereo partly shown) [15-Deoxy-16-hydroxy-16-methylisocarbacyclin], the 50% inhibitory concentration (IC50) in the test on Platelet aggregation is 0.37 µg/mL (≈ 1.02 µM).

For the compound `CCCC[C@H](C)C[C@H](O)/C=C/[C@@H]1[C@H]2CC(CCCCC(=O)OCC(=O)O)=C[C@H]2C[C@H]1O` [17(S),20-dimethylisocarbacyclin carboxymethyl ester], the “Percent inhibition of the plasma GPT activity” value in test [1] (1.0 mg/kg p.o.) is listed as 44%; in test [1] (3.0 mg/kg p.o.), 39%. In the test on Platelet aggregation, the IC50 was determined as 407 µg/mL (≈ 932 µM).

Take `CCCC[C@H](C)C[C@H](O)/C=C/[C@@H]1[C@H]2CC(CCCCC(=O)N[C@@H](CC(C)C)C(=O)O)=C[C@H]2C[C@H]1O` [17(S),20-Dimethylisocarbacyclin L-leucine amide]: the “Percent inhibition of the plasma GPT activity” value in test [1] (0.3 mg/kg p.o.) is reported as 33%. Moreover, the IC50 in the test with Platelet aggregation is greater than 1000 µg/mL.
